The record followed here is US11427553B2, “Dihydrooxadiazinones” (Bayer Aktiengesellschaft, priority 2017, dated 2022).

One data set concerns IGR37 cells. Briefly: Assay 1 cell proliferation measurement (CTG, 72 h), IGR37. The class given is cell-based. The conditions noted are these: Homo sapiens, IGR-37, Cell Titer Glo, read-out: IGR37 IC50 [nM] (melanoma). On the technique in general: In ATP-based viability assays light output follows the ATP content of the culture.
The next data set addresses human full length PDE3A (Homo sapiens (Human), UniProt Q14432). Briefly: Assay 4 PDE3A enzyme inhibition (3H-cAMP SPA). The conditions noted are these: Sf9 cell extract. Type of data set: biochemical. The method in brief: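 Hydrolysis of [8-3H]cAMP by Sf9-expressed full-length PDE3A was measured by scintillation proximity, with enzyme diluted to keep kinetics linear and substrate consumption below 70%. Incubation ran 60 min at room temperature at pH 7.5.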

A further data set has as its system A-2058 cells. As to the kind of experiment: Assay 1 cell proliferation measurement, A-2058. The class given is cell-based. The conditions noted are these: Homo sapiens, A2058; Melanoma; read-out: Anti-proliferation IC50 [nM] A-2058.
The test system of the next data set is C32 cells. As to the kind of experiment: Assay 2 cell proliferation measurement, C32. The class given is cell-based. The conditions noted are these: Homo sapiens, Melanoma, read-out: Anti-proliferation IC50 [nM] C32. The method, then:
(§1) Cell Proliferation Measurement
(§2) The antiproliferative activity of the compounds of the general formula (I) was examined in vitro in human cancer cells. For this purpose, 500 cells, including HeLa cells, A2058 cells, DU145 cells, HMCB cells, IGR37 cells, NCIH1734 cells, OSRC2 cells, or 750 cells, including CAL51 cells, COL0741 cells, DBTRG05MG cells, DKMG cells, G292CLONEA141B1 cells, GB1 cells, HEL cells, HEL9217 cells, JHUEM1 cells, L3.3 cells, LI7 cells, TE4 cells, or 1000 cells, including 8505C cells, HUT78 cells, NCIH1563 cells, NCIH2122 cells, NCIH2172 cells, RVH421 cells, SKMEL3 cells, or 1500 cells, including C32 cells, HS578T cells, JHOM1 cells, NCIH196 cells, OVKATE cells, were plated in 384-well plates with appropriate growth medium and incubated at 37° C. overnight. After 24 h, the cells on the test plate were treated with the compounds of the general formula (I) as and incubated at 37° C. for 72 h. The compounds were added to the cells by means of an HP D300 digital dispenser in a 10 (or more)-step dilution series. As control, the cells were treated with vehicle (DMSO at 0.3% final concentration). After 72 h, the cells were treated with 20 μl/well of 50% CTG solution in PBS (Promega Cell Titer Glo (catalogue #G755B and G756B)) and incubated at room temperature for 10 min, and luminescence was measured by means of a VICTOR V (Perkin Elmer), in order to determine cell viability at the end of treatment. The percentage effect on cell growth and the IC50 derived therefrom were determined for each test substance using the values from untreated wells (=percent viability). The IC50 values were calculated using a 4-parameter fit.

A short description of data set [1]: Assay 7 in vivo pharmacokinetics in non-rodents (dogs). On the set-up: species or system Beagle dogs. The conditions noted are these: i.v. The method, then: Assay 7 In Vivo Pharmacokinetics in Non-Rodents (e.g. Dogs)
For in vivo pharmacokinetic experiments test compounds were administered to non-rodents (e.g. female Beagle dogs) intravenously (i.v.) at doses of 0.1 to 1 mg/kg and intragastrally (i.g.) at doses of 0.3 to 3 mg/kg formulated as solutions using solubilizers such as e.g. PEG400 in well-tolerated amounts and are usually given as short term infusion (15 min).
Blood samples were taken e.g. at 2 min, 8 min, 15 min, 30 min, 45 min, 1 h, 2 h, 4 h, 6 h, 8 h and 24 h after dosing from the vena saphena.
For pharmacokinetics after intragastral administration test compounds were given intragastrally to fasted non-rodents (e.g. dogs). Blood samples were taken e.g. at 5 min, 15 min, 30 min, 45 min, 1 h, 2 h, 4 h, 6 h, 8 h and 24 h after dosing. […] Blood was collected into Lithium-Heparin tubes (Monovetten@, Sarstedt) and centrifuged for 15 min at 3000 rpm. A small aliquot (e.g. 100 μL) from the supernatant (plasma) was taken and precipitated by addition of an aliquot ice cold acetonitrile (e.g. of 400 μL) and frozen at −20° C. over night. Samples were subsequently thawed and centrifuged at 3000 rpm, 4° C. for 20 minutes. Aliquots of the supernatants were taken for analytical testing using an Agilent HPLC-system with LCMS/MS detection. PK parameters were calculated by non-compartmental analysis using a PK calculation software.
PK parameters derived from concentration-time profiles after i.v.: CLplasma: Total plasma clearance of test compound (in L/kg/h); CLblood: Total blood clearance of test compound: CLplasma*Cp/Cb (abbreviation: CLp;) in L/kg/h) with Cp/Cb being the ratio of concentrations in plasma and blood.
PK parameters calculated from concentration time profiles after […].: Cmax: Maximal plasma concentration (in mg/L); Cmaxnorm: Cmax divided by the administered dose (in kg/L); Tmax: Time point at which Cmax was observed (in h). Parameters calculated from both, i.v. and i.g. concentration-time profiles: AUCnorm: Area under the concentration-time curve from t=0 h to infinity (extrapolated) divided by the administered dose (in kg*h/L); AUC(0-tlast)norm: Area under the concentration-time curve from t=0 h to the last time point for which plasma concentrations could be measured divided by the administered dose (in kg*h/L); t1/2: terminal half-life (in h); F: oral bioavailability: AUCnorm after intragastral administration divided by AUCnorm after intravenous administration (in %).

Another data set has as its system NCIH196 cells. Briefly: Assay 2 cell proliferation measurement, H196. Type of data set: cell-based. The conditions noted are these: Homo sapiens, NCI-H196, Lung small cell carcinoma, read-out: Anti-proliferation IC50 [nM] H196. The method, then: as §1, §2
The test system of a further data set is HEL 92.1.7 cells. Briefly: Assay 1 cell proliferation measurement, HEL 92.1.7. The class given is cell-based. The conditions noted are these: Homo sapiens, Erythroleukemia, read-out: Anti-proliferation IC50 [nM] HEL 92.1.7.
The subject of a further data set is CHL-1 cells. As to the kind of experiment: Assay 1 cell proliferation measurement, CHL-1. The class given is cell-based. The conditions noted are these: Homo sapiens, Melanoma, read-out: Anti-proliferation IC50 [nM] CHL-1.

Chain of human full length PDE3A (Q14432 whole entry): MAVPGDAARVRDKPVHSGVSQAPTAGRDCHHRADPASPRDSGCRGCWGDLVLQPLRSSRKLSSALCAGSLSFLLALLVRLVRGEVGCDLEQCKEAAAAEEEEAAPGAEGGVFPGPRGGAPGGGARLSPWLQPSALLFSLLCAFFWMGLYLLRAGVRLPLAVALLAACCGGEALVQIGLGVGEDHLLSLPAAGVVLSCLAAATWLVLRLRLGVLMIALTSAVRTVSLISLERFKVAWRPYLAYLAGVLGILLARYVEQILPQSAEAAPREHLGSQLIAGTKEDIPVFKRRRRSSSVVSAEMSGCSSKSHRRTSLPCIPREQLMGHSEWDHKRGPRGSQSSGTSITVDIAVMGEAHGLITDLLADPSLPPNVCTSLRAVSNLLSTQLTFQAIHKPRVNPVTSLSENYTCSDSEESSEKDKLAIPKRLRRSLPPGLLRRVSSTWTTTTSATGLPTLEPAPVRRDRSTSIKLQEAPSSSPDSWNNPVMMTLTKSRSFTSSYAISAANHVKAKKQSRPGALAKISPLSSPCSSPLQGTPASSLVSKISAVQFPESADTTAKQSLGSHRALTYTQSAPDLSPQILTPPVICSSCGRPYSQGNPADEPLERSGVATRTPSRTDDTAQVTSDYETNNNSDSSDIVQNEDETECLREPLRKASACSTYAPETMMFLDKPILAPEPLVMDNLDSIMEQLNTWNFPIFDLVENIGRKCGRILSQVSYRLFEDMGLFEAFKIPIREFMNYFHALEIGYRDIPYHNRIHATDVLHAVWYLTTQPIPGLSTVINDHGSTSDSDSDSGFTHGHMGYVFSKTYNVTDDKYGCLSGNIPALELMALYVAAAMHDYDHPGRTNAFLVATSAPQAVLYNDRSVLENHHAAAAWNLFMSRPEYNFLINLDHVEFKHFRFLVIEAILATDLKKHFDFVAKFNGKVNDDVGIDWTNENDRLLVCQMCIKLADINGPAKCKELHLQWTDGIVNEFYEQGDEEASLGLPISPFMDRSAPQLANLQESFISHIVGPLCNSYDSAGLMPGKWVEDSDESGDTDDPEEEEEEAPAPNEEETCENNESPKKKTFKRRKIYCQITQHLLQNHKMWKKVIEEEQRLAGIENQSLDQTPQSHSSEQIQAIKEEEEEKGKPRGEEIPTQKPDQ

As to `C[C@@H]1OC(=O)NN=C1c1ccc(-c2ccc(F)cc2)c(C(F)(F)F)c1` [Example 135, (6S)-5-[4′-Fluoro-2-(trifluoromethyl)biphenyl-4-yl]-6-methyl-3,6-dihydro-2H-1,3,4-oxadiazin-2-one], the IC50 in the data set with IGR37 cells was 3 nM; against human full length PDE3A, 87 nM; with A-2058 cells, 24 nM; in the data set on C32 cells it was 58 nM; in the data set on NCIH196 cells, 150 nM. Besides, the “CLblood dog” value in data set [1] came to 8.17 mL/min/kg.
In the case of `O=C1NN=C(c2ccc(-c3ccc(F)cc3)c(C(F)(F)F)c2)CO1` [Example 3, 5-[4′-Fluoro-2-(trifluoromethyl)biphenyl-4-yl]-3,6-dihydro-2H-1,3,4-oxadiazin-2-one], the figures for the IC50 against human full length PDE3A, in the data set on HEL 92.1.7 cells and in the data set on CHL-1 cells were 285 nM, 25 nM and 9 nM, respectively. In addition, in data set [1], the “CLblood dog” value came to 39.8 mL/min/kg.
For the compound `C[C@@H]1OC(=O)NN=C1c1ccc(-n2ccc(C(F)(F)F)n2)c(C(F)(F)F)c1` [Example 265, (6S)-6-Methyl-5-{3-(trifluoromethyl)-4-[3-(trifluoromethyl)-1H-pyrazol-1-yl]phenyl}-3,6-dihydro-2H-1,3,4-oxadiazin-2-one], the IC50 is 7 nM in the data set with IGR37 cells, 132 nM in the data set with C32 cells and 355 nM in the data set on NCIH196 cells.
As to `O=C1NN=C(c2ccc(-c3ccc(Cl)cc3)c(C(F)(F)F)c2)CO1` [Example 31, 5-[4′-Chloro-2-(trifluoromethyl)biphenyl-4-yl]-3,6-dihydro-2H-1,3,4-oxadiazin-2-one], the IC50 stood at 14 nM in the data set with IGR37 cells; 310 nM on human full length PDE3A; 51 nM in the data set on A-2058 cells; 47 nM in the data set on HEL 92.1.7 cells; 28 nM in the data set on CHL-1 cells. In data set [1], the “CLblood dog” value came to 8.17 mL/min/kg.
As to `O=C1NN=C(c2ccc(-c3cnn(C(F)F)c3)c(C(F)(F)F)c2)CO1` [Example 146, 5-{4-[1-(Difluoromethyl)-1H-pyrazol-4-yl]-3-(trifluoromethyl)phenyl}-3,6-dihydro-2H-1,3,4-oxadiazin-2-one], the IC50 is 2 nM with IGR37 cells; 40 nM on human full length PDE3A; 16 nM in the data set with A-2058 cells; 52 nM in the data set with C32 cells; 13 nM in the data set on HEL 92.1.7 cells; 8 nM in the data set with CHL-1 cells. In the data set on NCIH196 cells, the IC50 amounted to 32 nM. For the same compound, the “CLblood dog” value in data set [1] is 47.3 mL/min/kg.
